Patent publication US4287194A, “Compositions with potentiated hypotensive effects” (priority 1978, dated 1981)
Values joined by “and” are separate entries in the source; they are usually repeats but may differ in a detail not shown here. Equal entries are not always repeated.

Assays:
[1] = test system: genetically hypertensive awake rats; experiment: Hypotensive effect on awake rats suffering from genetic hypertension (method of Eaton, modified); format: in vivo, Wistar-Okamoto rats
[2] = test system: awake dogs with renal hypertension; experiment: Hypotensive effect on awake dogs suffering from renal hypertension (Grollman operation); format: in vivo
Description: (2) Determination of the hypotensive effect on awake dogs suffering from renal hypertension

[3] = Oral acute toxicity (LD50) of the individual components, one week observation; conditions: mouse, in vivo
Procedure: Based on the data given in points 1 and 2 above it can be stated that a considerable potentiating synergism appears with respect to the hypotensive effect when applying the compounds of formula (I) in combination with those of formula (V). In the following it was investigated whether this synergism also appears with respect to the toxicity. In the first test series the LD50 values of the individual components were determined on CFLP-mice. The compounds were administered orally, and the animals were kept under observation for one week. The LD50 values of the individual compounds are as follows: […]

[4] = Toxicity (mortality) of combinations: pre-treatment for one hour with 11,473 or 11,121, then pindolol; parameters: species or system CFLP-mice; conditions: mouse, in vivo, po
Procedure: Based on the data given in points 1 and 2 above it can be stated that a considerable potentiating synergism appears with respect to the hypotensive effect when applying the compounds of formula (I) in combination with those of formula (V). In the following it was investigated whether this synergism also appears with respect to the toxicity. In the first test series the LD50 values of the individual components were determined on CFLP-mice. The compounds were administered orally, and the animals were kept under observation for one week. The LD50 values of the individual compounds are as follows:
To determine the toxicity values of the combinations dosages calculated on the basis of the isobole construction principle were applied. The animals were pre-treated for one hour with various dosages of 11,473 or 11,121, and then varying dosages of pindolol were administered.

## COC(=O)c1ccc(O)c(CON)c1.Cl [11,121, 2-hydroxy-5-carbomethoxy-benzyloxyamine hydrochloride]
[1]; 50 mg/kg p.o.
  Blood pressure after 2 hours: 170.0 mmHg
  Blood pressure after 5 hours: 163.0 mmHg
  Blood pressure after 24 hours: 169.0 mmHg
[1]; 50 mg/kg p.o., basal value
  Blood pressure, basal value: 168.2 mmHg
[2]; 5 mg/kg p.o.
  Blood pressure after 1 hour: 170.0 mmHg
  Blood pressure after 2 hours: 167.5 mmHg
  Blood pressure after 3 hours: 175.0 mmHg
  Blood pressure after 4 hours: 165.0 mmHg
  Blood pressure after 5 hours: 172.5 mmHg
  Blood pressure after 24 hours: 165.0 mmHg
  Blood pressure, basal value: 165.0 mmHg
[3]; p.o., one week observation
  LD50 at 168 h: 2900 mg/kg

## Cl.NOCc1ccc([N+](=O)[O-])c(O)c1 [11,130, 3-hydroxy-4-nitro-benzyloxyamine hydrochloride]
[1]; 20 mg/kg p.o.
  Blood pressure after 2 hours: 183.0 mmHg
  Blood pressure after 5 hours: 176.0 mmHg
  Blood pressure after 24 hours: 172.0 mmHg
[1]; 20 mg/kg p.o., basal value
  Blood pressure, basal value: 174.0 mmHg

## CCOC(=O)CC(C)=NNc1ccc(Cl)nn1 [11,473, N^1-(3-Chloro-6-pyridazinyl)-N^2-(1-carbethoxy-2-propylidene)-hydrazine]
[1]; 10 mg/kg p.o.
  Blood pressure after 2 hours: 194.0 mmHg
  Blood pressure after 5 hours: 197.0 mmHg
  Blood pressure after 24 hours: 198.0 mmHg
[1]; 10 mg/kg p.o., basal value
  Blood pressure, basal value: 195.0 mmHg
[3]; p.o., one week observation
  LD50 at 168 h: 360 mg/kg

## CC(C)NCC(O)COc1cccc2[nH]ccc12.Cl (stereo not drawn) [Pindolol, 1-(4-indolyloxy)-3-isopropylamino-2-propanol hydrochloride]
[1]; 0.25 mg/kg p.o., hydrochloride
  Blood pressure after 2 hours: 180.8 mmHg and 181.6 mmHg
  Blood pressure after 5 hours: 164.9 mmHg and 168.8 mmHg
  Blood pressure after 24 hours: 183.4 mmHg and 188.8 mmHg
[1]; 0.25 mg/kg p.o., basal value (before treatment), hydrochloride
  Blood pressure, basal value: 182.2 mmHg and 184.4 mmHg
[1]; 0.5 mg/kg p.o., hydrochloride
  Blood pressure after 2 hours: 161.4 mmHg and 191.2 mmHg and 172.1 mmHg
  Blood pressure after 5 hours: 160.5 mmHg and 188.3 mmHg and 160.8 mmHg
  Blood pressure after 24 hours: 150.5 mmHg and 188.9 mmHg and 188.6 mmHg
[1]; 0.5 mg/kg p.o., basal value, hydrochloride
  Blood pressure, basal value: 165.0 mmHg and 200.0 mmHg and 200.3 mmHg
[1]; 1 mg/kg p.o.
  Blood pressure after 2 hours: 135.0 mmHg
  Blood pressure after 5 hours: 135.0 mmHg
  Blood pressure after 24 hours: 151.1 mmHg
[1]; 1 mg/kg p.o., basal value
  Blood pressure, basal value: 164.4 mmHg
[1]; 5 mg/kg p.o.
  Blood pressure after 2 hours: 154.5 mmHg
  Blood pressure after 5 hours: 124.5 mmHg
  Blood pressure after 24 hours: 161.0 mmHg
[1]; 5 mg/kg p.o., basal value
  Blood pressure, basal value: 172.5 mmHg
[1]; Rattus norvegicus, po, read-out: ED30% (dosage which decreases the blood pressure by 30% related to the value before treatment), p.o., given alone
  ED30: ~5 mg/kg
[1]; p.o., given alone, hydrochloride
  ED30% (dosage which decreases the blood pressure by 30% related to the value before treatment): 5 mg/kg
[2]; 0.1 mg/kg p.o.
  Blood pressure after 1 hour: 133.3 mmHg
  Blood pressure after 2 hours: 133.3 mmHg
  Blood pressure after 3 hours: 153.0 mmHg
  Blood pressure after 4 hours: 156.7 mmHg
  Blood pressure after 5 hours: 160.0 mmHg
  Blood pressure after 24 hours: 153.3 mmHg
  Blood pressure, basal value: 156.7 mmHg
[3]
  LD50 at 168 h: 300 mg/kg
[4]; pindolol alone 60 mg/kg p.o.
  mortality: 0%
[4]; pindolol alone 90 mg/kg p.o.
  mortality: 0%
[4]; pindolol alone 135 mg/kg p.o.
  mortality: 8%
[4]; pindolol alone 200 mg/kg p.o.
  mortality: 16%
[4]; pindolol alone 300 mg/kg p.o.
  mortality: 46%
[4]; pindolol alone 450 mg/kg p.o.
  mortality: 75%

## CC(C)NCC(O)COc1cccc2ccccc12.Cl (stereo not drawn) [Propranolol, 1-(1-Naphthyloxy)-3-isopropylamino-2-propanol hydrochloride]
[1]; 1 mg/kg p.o.
  Blood pressure after 2 hours: 170.0 mmHg
  Blood pressure after 5 hours: 168.7 mmHg
  Blood pressure after 24 hours: 157.5 mmHg
[1]; 1 mg/kg p.o., basal value
  Blood pressure, basal value: 167.5 mmHg
[1]; 5 mg/kg p.o.
  Blood pressure after 2 hours: 178.6 mmHg
  Blood pressure after 5 hours: 175.9 mmHg
  Blood pressure after 24 hours: 181.8 mmHg
[1]; 5 mg/kg p.o., basal value
  Blood pressure, basal value: 186.4 mmHg
[1]; 10 mg/kg p.o.
  Blood pressure after 2 hours: 170.0 mmHg
  Blood pressure after 5 hours: 148.3 mmHg
  Blood pressure after 24 hours: 163.7 mmHg
[1]; 10 mg/kg p.o., basal value
  Blood pressure, basal value: 178.0 mmHg
[1]; Rattus norvegicus, po
  ED15: ~10 mg/kg
